{
  "source": "PubChem BioAssay AID1963838",
  "about": "(Molecular Pharmacology Branch, DTP, NCI, 2024);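 also: spheroids exposed to compounds for seven days before readout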",
  "test_system": "855422-203-R-J1-PDC complex spheroid viability",
  "assay": "Anticancer human tumor 855422-203-R-J1-PDC patient-derived bladder carcinoma cell line growth inhibition [POLQ]",
  "settings": "for IC50: curve of first compound; for viability, T/C: stronger effect = lower value",
  "method_in_brief": "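Patient-derived tumour cells were co-cultured with HUVEC and mesenchymal stem cells as multicellular spheroids at 37 °C. They were treated with POLQ inhibitors (novobiocin, ART-558, RP6685) alone or combined with other agents. Top concentrations were at or near clinical Cmax (otherwise 10 microM; SN-38 at 1 microM), decreasing in half-log steps.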",
  "data": [
    {"smiles": "CC1COCCN1c1cc(C2(S(C)(=N)=O)CC2)nc(-c2ccnc3[nH]ccc23)n1", "note": "(configuration not stated) + COC1C(OC(N)=O)C(O)C(Oc2ccc3c(O)c(NC(=O)c4ccc(O)c(CC=C(C)C)c4)c(=O)oc3c2C)OC1(C)C", "values": [
      {"measurement": "IC50", "setting": "second compound 0.0316 µM", "value": 2450, "unit": "nM"},
      {"measurement": "IC50", "setting": "second compound 0.1 µM", "value": 2390, "unit": "nM"},
      {"measurement": "IC50", "setting": "second compound 0.316 µM", "value": 2650, "unit": "nM"},
      {"measurement": "IC50", "setting": "second compound 1 µM", "value": 2710, "unit": "nM"},
      {"measurement": "IC50", "setting": "second compound 3.16 µM", "value": 2590, "unit": "nM"},
      {"measurement": "IC50", "setting": "second compound 10 µM", "value": 2300, "unit": "nM"},
      {"measurement": "viability, T/C", "setting": "second compound 0.0316 µM, first compound 0.0316 µM", "value": 110, "unit": "%"},
      {"measurement": "viability, T/C", "setting": "second compound 0.0316 µM, first compound 0.1 µM", "value": 118, "unit": "%"},
      {"measurement": "viability, T/C", "setting": "second compound 0.0316 µM, first compound 0.316 µM", "value": 122, "unit": "%"},
      {"measurement": "viability, T/C", "setting": "second compound 0.0316 µM, first compound 1 µM", "value": 97.5, "unit": "%"},
      {"measurement": "viability, T/C", "setting": "second compound 0.0316 µM, first compound 3.16 µM", "value": 36.7, "unit": "%"},
      {"measurement": "viability, T/C", "setting": "second compound 0.0316 µM, first compound 10 µM", "value": 12, "unit": "%"},
      {"measurement": "viability, T/C", "setting": "second compound 0.1 µM, first compound 0.0316 µM", "value": 100, "unit": "%"},
      {"measurement": "viability, T/C", "setting": "second compound 0.1 µM, first compound 0.1 µM", "value": 99.2, "unit": "%"},
      {"measurement": "viability, T/C", "setting": "second compound 0.1 µM, first compound 0.316 µM", "value": 118, "unit": "%"},
      {"measurement": "viability, T/C", "setting": "second compound 0.1 µM, first compound 1 µM", "value": 111, "unit": "%"},
      {"measurement": "viability, T/C", "setting": "second compound 0.1 µM, first compound 3.16 µM", "value": 31.6, "unit": "%"},
      {"measurement": "viability, T/C", "setting": "second compound 0.1 µM, first compound 10 µM", "value": 12.8, "unit": "%"},
      {"measurement": "viability, T/C", "setting": "second compound 0.316 µM, first compound 0.0316 µM", "value": 110, "unit": "%"},
      {"measurement": "viability, T/C", "setting": "second compound 0.316 µM, first compound 0.1 µM", "value": 103, "unit": "%"},
      {"measurement": "viability, T/C", "setting": "second compound 0.316 µM, first compound 0.316 µM", "value": 117, "unit": "%"},
      {"measurement": "viability, T/C", "setting": "second compound 0.316 µM, first compound 1 µM", "value": 111, "unit": "%"},
      {"measurement": "viability, T/C", "setting": "second compound 0.316 µM, first compound 3.16 µM", "value": 39, "unit": "%"},
      {"measurement": "viability, T/C", "setting": "second compound 0.316 µM, first compound 10 µM", "value": 11.1, "unit": "%"},
      {"measurement": "viability, T/C", "setting": "second compound 1 µM, first compound 0.0316 µM", "value": 113, "unit": "%"},
      {"measurement": "viability, T/C", "setting": "second compound 1 µM, first compound 0.1 µM", "value": 112, "unit": "%"},
      {"measurement": "viability, T/C", "setting": "second compound 1 µM, first compound 0.316 µM", "value": 126, "unit": "%"},
      {"measurement": "viability, T/C", "setting": "second compound 1 µM, first compound 1 µM", "value": 118, "unit": "%"},
      {"measurement": "viability, T/C", "setting": "second compound 1 µM, first compound 3.16 µM", "value": 39.5, "unit": "%"},
      {"measurement": "viability, T/C", "setting": "second compound 1 µM, first compound 10 µM", "value": 10.5, "unit": "%"},
      {"measurement": "viability, T/C", "setting": "second compound 3.16 µM, first compound 0.0316 µM", "value": 125, "unit": "%"},
      {"measurement": "viability, T/C", "setting": "second compound 3.16 µM, first compound 0.1 µM", "value": 106, "unit": "%"},
      {"measurement": "viability, T/C", "setting": "second compound 3.16 µM, first compound 0.316 µM", "value": 116, "unit": "%"},
      {"measurement": "viability, T/C", "setting": "second compound 3.16 µM, first compound 1 µM", "value": 112, "unit": "%"},
      {"measurement": "viability, T/C", "setting": "second compound 3.16 µM, first compound 3.16 µM", "value": 37.1, "unit": "%"},
      {"measurement": "viability, T/C", "setting": "second compound 3.16 µM, first compound 10 µM", "value": 12.3, "unit": "%"},
      {"measurement": "viability, T/C", "setting": "second compound 10 µM, first compound 0.0316 µM", "value": 114, "unit": "%"},
      {"measurement": "viability, T/C", "setting": "second compound 10 µM, first compound 0.1 µM", "value": 103, "unit": "%"},
      {"measurement": "viability, T/C", "setting": "second compound 10 µM, first compound 0.316 µM", "value": 111, "unit": "%"},
      {"measurement": "viability, T/C", "setting": "second compound 10 µM, first compound 1 µM", "value": 99.9, "unit": "%"},
      {"measurement": "viability, T/C", "setting": "second compound 10 µM, first compound 3.16 µM", "value": 30.8, "unit": "%"},
      {"measurement": "viability, T/C", "setting": "second compound 10 µM, first compound 10 µM", "value": 10.7, "unit": "%"}
    ]}
  ]
}
